Results from article PMC5062470, “The mGluR2 positive allosteric modulator, SAR218645, improves memory and attention deficits in translational models of cognitive symptoms associated with schizophrenia” (Scientific Reports, 2016).

Assays:
OF1 mice = assay: Maximal electroshock seizure (MES) test; assay type: in vivo; settings: 10 mg/kg ip; vehicle 100
Experimental: SAR218645 (30 mg/kg, po) and the reference anticonvulsant agent, diazepam (10 mg/kg), were administered ip to OF1 mice (12–14 g) 30 min prior to test, respectively. An electrical stimulus (60 Hz, 0.8 ms rectangular pulse, 0.4 s duration, 50 mA) was applied to both corneas. The occurrence of tonic extension of the hindlimbs was noted.

rat mGluR2 = rat mGluR2 (Rattus norvegicus, UniProt P31421); assay: [3H]LY341495 binding to membranes; set-up: expressed in transfected cells; host or cells: inducible HEK-293 cell line (membranes)
Experimental: Binding assay was adapted from Johnson et al.[29]. […] Addition of 5–10 μg membrane protein initiated the incubation. After 45 min at room temperature, the incubation was terminated by rapid filtration followed by scintillation counting. Ki’s were calculated using 4-parameter curve fitting.

rat mGluR3 = target: T1, rat mGluR3 (Rattus norvegicus, UniProt P31422); assay: [3H]LY341495 binding to membranes; settings: Fig. 5C
T1 construct: expressed in transfected cells; host or cells: inducible HEK-293 cell line (membranes)
Experimental: Membranes were prepared from an inducible HEK-293 cell line expressing rat mGluR2 or mGluR3. Binding assay was adapted from Johnson et al.[29]. Briefly, [^3H]LY341495 (1.4 nM) was evaluated for binding in the presence or in the absence of orthosteric and allosteric ligands. […] Addition of 5–10 μg membrane protein initiated the incubation. After 45 min at room temperature, the incubation was terminated by rapid filtration followed by scintillation counting. Ki’s were calculated using 4-parameter curve fitting.

CD-1 mice [1] = assay: LY404039-induced turning behavior; assay type: in vivo; settings: LY341495 0.3 mg/kg ip; P < 0.001
Experimental: Under light restraint, a single unilateral intracortical infusion of the selective mGluR2/3 receptor agonist, LY404039, was performed in CD-1 mice (25–30 g at arrival). An injection point was assessed using the eyes and back of the skull as landmarks. Immediately following the application of LY404039, the observation period began. The number of contralateral turns elicited in a 5 min period was recorded. SAR218645 was administered orally 60 min before infusion of LY404039 and the potentiation of the turning behavior was noted. The selective mGluR2/3 receptor antagonist, LY341495, was administered ip 90 min prior to infusion of LY404039. Statistical analysis was performed using Kruskal Wallis test followed by a Wilcoxon two-tailed comparison. Ten animals per group were used.

native mouse mGluR2 = target: T2, native mouse mGluR2 (Mus musculus, UniProt Q14BI2); assay: [35S]GTPγS binding to mouse cortex; assay type: biochemical; settings: glutamate EC20 (1 μM) + SAR218645
T2 construct: SAR218645 acted as a pure mGluR2 PAM at native mouse mGluR2 in the cortex; from tissue; host or cells: mouse cortex membranes
Experimental: The assay was performed in 96-well filtration plates in 250 μl total volume. […] For termination of the reaction, the plate was filtered and dried prior to adding 50 μl Microscint 40, and counted on the 1450 TopCount Microbeta Counter. EC50 were calculated using 4-parameter curve fitting.

Sprague-Dawley rats = assay: Amphetamine-induced disruption of auditory evoked potentials (AEP); assay type: in vivo; settings: 3 mg/kg po; amphetamine 3 mg/kg
Description: All recordings were made using Spike2 software (Cambridge Electronic Design, Cambridge, UK) running on a Windows PC connected to a 1401 interface (Cambridge Electronic Design, Cambridge, UK). EEG recordings were created by connecting the skull plug to an amplifying head stage (AI 1401, Axon Instruments, Union City, CA, USA), via a 6-channel commutator and cable (Plastics One, Roanoke, VA, USA). The signal was then further amplified with a multichannel amplifier (Cyberamp 380, Axon Instruments, Union City, CA, USA). Auditory stimuli were controlled by the interface via an eight channel power amplifier (SA8, Tucker Davis Technologies, Alachua, FL) connected to a patch panel (PP16, Tucker Davis Technologies), which was connected to speakers located above each cage (TDT Magnetic Speakers, Tucker Davis Technologies). During recording sessions, animals were placed inside standard mouse cages (30 × 15 × 15 cm) and rigged so that the six channel cables could connect with the rest of the apparatus outside of the cage.
Male Sprague-Dawley rats (150–180 g at arrival) were anesthetized with 3% isoflurane and their scalp was shaved and prepared for surgery. An incision was made in the scalp and the skin was retracted to allow direct contact with the skull surface. The skull was cleaned with a dry Q-tip and five holes were drilled through the skull. Three holes were drilled at coordinates AP + 1 mm, ML + 1 mm (reference); AP−4 mm, ML ± 4 mm (leads 1 and 2) relative to bregma, while an additional hole was drilled in the frontal area (ground) and another hole was drilled at the midpoint between the anterior and posterior coordinate (anchor). […]
AEP data analysis: Data were collected and analyzed using Spike2 software (CED Software, Cambridge, UK). […] Then a horizontal cursor was placed at the highest and lowest (peak and trough) point of the P1/N1 wave, for both the wave occurring to the first tone (S1) and to the second tone (S2), and the value was recorded into an Excel spreadsheet. […]

CD-1 mice [2] = assay: DOI-induced head-twitch behaviors; assay type: in vivo; settings: po; DOI 1 mg/kg ip
Experimental: Male CD-1 mice weighing 25–30 g at the time of testing were used. Animals were brought into the testing area and allowed at least 30 min to acclimatize. The behavior observation was conducted in a wire test chamber measuring 10 cm^3. SAR218645 or the selective 5-HT2A receptor antagonist, volinanserin, was administered po at various times before administration of DOI. DOI was injected ip at a dose of 1 mg/kg. Five minutes later behavioral observation commenced. A trained (blinded) observer continuously watched the mice for 20 min and noted the number of DOI-induced head twitches during this time. The number of head twitches per group was averaged and SAR218645 or volinanserin plus DOI were compared to DOI alone. Three to eight animals per group were used.

T1 sequence (P31422 23-879): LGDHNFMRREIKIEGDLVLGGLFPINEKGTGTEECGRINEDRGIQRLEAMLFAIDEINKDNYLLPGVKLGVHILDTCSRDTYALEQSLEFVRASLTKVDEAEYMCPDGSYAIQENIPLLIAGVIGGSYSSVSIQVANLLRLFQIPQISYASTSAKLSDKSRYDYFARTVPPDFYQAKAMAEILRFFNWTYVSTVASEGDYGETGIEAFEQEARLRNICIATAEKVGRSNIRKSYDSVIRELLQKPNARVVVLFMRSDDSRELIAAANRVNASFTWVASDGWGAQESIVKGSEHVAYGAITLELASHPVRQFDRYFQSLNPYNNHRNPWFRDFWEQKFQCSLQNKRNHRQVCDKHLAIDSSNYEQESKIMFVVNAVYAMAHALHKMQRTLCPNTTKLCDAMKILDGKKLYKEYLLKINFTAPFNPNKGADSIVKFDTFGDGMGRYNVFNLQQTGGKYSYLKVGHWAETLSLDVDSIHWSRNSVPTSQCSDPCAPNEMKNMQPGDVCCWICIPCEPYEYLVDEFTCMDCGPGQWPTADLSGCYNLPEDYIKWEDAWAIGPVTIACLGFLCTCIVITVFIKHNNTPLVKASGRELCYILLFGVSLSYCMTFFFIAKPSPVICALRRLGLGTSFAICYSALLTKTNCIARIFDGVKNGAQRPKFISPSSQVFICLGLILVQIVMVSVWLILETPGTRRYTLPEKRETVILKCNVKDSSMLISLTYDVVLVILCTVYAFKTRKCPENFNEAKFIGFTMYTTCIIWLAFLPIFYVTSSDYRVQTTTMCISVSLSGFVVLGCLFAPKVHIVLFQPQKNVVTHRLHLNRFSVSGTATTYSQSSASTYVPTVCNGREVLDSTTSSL
rat mGluR2, sequence (P31421 19-872): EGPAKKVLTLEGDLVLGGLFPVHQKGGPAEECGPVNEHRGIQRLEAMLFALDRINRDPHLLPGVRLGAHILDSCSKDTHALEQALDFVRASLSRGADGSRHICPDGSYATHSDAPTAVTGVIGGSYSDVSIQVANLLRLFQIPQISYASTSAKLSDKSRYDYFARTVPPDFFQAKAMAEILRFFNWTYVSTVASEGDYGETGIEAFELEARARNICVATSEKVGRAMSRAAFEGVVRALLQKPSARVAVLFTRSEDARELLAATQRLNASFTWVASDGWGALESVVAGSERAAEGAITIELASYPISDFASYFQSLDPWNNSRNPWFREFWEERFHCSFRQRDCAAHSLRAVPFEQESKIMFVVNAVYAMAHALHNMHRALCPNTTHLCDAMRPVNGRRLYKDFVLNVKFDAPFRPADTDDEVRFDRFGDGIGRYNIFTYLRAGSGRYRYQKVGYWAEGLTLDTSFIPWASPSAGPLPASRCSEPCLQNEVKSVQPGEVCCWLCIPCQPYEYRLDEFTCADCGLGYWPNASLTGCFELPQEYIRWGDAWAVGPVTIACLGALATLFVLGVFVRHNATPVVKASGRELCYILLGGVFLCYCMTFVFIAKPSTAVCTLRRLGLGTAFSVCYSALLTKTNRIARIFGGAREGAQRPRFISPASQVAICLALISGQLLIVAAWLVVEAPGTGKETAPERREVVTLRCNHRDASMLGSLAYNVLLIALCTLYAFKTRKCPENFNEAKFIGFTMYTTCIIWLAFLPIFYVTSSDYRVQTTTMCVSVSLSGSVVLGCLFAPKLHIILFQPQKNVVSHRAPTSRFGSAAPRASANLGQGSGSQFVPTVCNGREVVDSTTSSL
T2 sequence (Q14BI2 19-872): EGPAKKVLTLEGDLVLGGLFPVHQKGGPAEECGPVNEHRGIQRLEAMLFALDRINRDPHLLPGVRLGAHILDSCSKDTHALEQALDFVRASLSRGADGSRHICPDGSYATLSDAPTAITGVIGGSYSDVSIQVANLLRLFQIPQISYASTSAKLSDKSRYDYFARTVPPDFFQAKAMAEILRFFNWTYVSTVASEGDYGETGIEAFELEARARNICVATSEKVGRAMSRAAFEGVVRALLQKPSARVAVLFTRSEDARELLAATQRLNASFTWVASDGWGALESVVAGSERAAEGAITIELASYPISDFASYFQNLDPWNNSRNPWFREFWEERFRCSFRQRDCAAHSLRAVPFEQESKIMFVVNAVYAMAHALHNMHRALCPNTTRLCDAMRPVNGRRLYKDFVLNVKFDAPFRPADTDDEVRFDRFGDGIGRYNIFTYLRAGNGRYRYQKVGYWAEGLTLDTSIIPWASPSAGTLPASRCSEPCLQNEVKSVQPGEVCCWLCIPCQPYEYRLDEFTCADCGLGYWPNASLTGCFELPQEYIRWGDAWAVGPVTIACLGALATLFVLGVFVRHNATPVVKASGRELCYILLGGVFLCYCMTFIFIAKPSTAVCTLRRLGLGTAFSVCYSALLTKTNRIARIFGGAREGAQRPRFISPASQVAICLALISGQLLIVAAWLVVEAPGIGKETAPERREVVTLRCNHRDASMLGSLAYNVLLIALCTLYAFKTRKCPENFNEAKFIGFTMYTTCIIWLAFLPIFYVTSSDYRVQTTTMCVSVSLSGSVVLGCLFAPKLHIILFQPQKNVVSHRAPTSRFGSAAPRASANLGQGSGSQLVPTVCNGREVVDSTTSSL

## CN1C(=O)CN=C(c2ccccc2)c2cc(Cl)ccc21 [Diazepam, reference compound]
OF1 mice
  Tonic seizures: 0%

## N[C@@H](CCC(=O)O)C(=O)O [Glutamate, L-glutamatic acid, reference compound]
Rat mGluR2; absence of SAR218645, Fig. 5B
  maximal binding, glutamate alone: 108%
Rat mGluR3
  Ki: 400 nM

## N[C@](CC1c2ccccc2Oc2ccccc21)(C(=O)O)[C@H]1C[C@@H]1C(=O)O [LY341495, reference compound]
CD-1 mice [1]
  antagonism of the effect of SAR218645 (10 mg/kg) on turning: blocked
Native mouse mGluR2
  antagonism of the SAR218645 potentiation: blocked

## N[C@@]1(C(=O)O)CS(=O)(=O)[C@H]2[C@H](C(=O)O)[C@H]21 [LY404039, (-)-(1R,4S,5S,6S)-4-amino-2-sulfonylbicyclo[3.1.0]hexane-4,6-dicarboxylic acid, reference compound]
Rat mGluR2; Fig. 5A
  Ki: 462 nM
Rat mGluR3
  Ki: 901 nM

## O=C(Oc1ccc(Br)cc1)N1CCN2CCC1CC2 [SSR180711, reference compound]
Sprague-Dawley rats
  effect on amphetamine-disrupted auditory gating (S2/S1 ratio): attenuated amphetamine-induced disrupted gating

## COc1cccc([C@H](O)C2CCN(CCc3ccc(F)cc3)CC2)c1OC [volinanserin, reference compound]
CD-1 mice [2]
  effect on DOI-induced head twitches (reference): inhibited
